Read-outs that look alike come from different tables or passages of the source.
How the values were obtained:
[1] = test system: IRF3-luciferase reporter gene; test: IRF3-luciferase reporter induction in HLE A549 cells (primary assay for NOD2 activation); assay type: cell-based, human; settings: 12 h incubation
Experimental: The evaluation of SMNH compounds for NOD2 activation was conducted by primary, secondary, and tertiary assays. In the primary assays, SMNH compounds were tested for the induction of IRF3 expression in HLE A549 cells, which are known to endogenously express NOD2. […] SB 44, a mixture of two isomers Rp and Sp, is a prodrug of SB 40. SB 1B—the Rp isomer of SB 44 and is shown as SB 44-1 in the FIGS. 1-2.
IRF3-luciferase transfected cells were incubated with either DMSO only (UT) or SMNH compounds (μM). Following 12 h incubation, luciferase activity was measured using Dual-Luciferase Reporter Assay System (Promega) according to the manufacturer's protocol. Transfection efficiency was normalized by measuring the expression of renilla Luciferase. Luciferase units (i.e., fold induction) were measured by standard methodology (mean±standard deviation; 3 independent experiments). The results are depicted in FIG. 1.

interferon-β (IFN-β) = test: IFN-β production from human lung epithelial A549 cells; assay type: cell-based
[2] = test system: C57Bl/6 mouse bone marrow derived macrophages; assay type: cell-based
M. tuberculosis = test system: M. tuberculosis; set-up: species or system C57Bl/6 mice; settings: mouse, in vivo
IL-1β = test: Mature IL-1β ELISA in mouse bone marrow derived primary macrophages; assay type: cell-based; settings: alone or with MDP or BCG, caspase blockade with ZVAD-fmk
Experimental: C57Bl/6 mouse bone marrow derived primary macrophages were treated with SB 1A or SB 1B alone, MDP alone or in combination as indicated for 4 hrs. BCG was used for infection for 4 hrs and supernatants collected 18 hr later titrated for mature IL1β using ELISA. Macrophages were first treated with ZVAD-fmk (2 hrs) for caspase blockade followed by activation with SB 1A and SB 1B (4 hrs) and BCG infection (4 hrs). Cytokine was measured 18 hrs later.

[3] = human liver S9 fractions
Experimental: SB 44 (10 μM) was incubated with a mix containing S9 fraction (pooled from human) (1 mg/ml), NADPH (1.3 mM) UDPGA (5 mM), Alamethicin (10 μg/ml) in 1 ml of 1×PBS buffer. S-(5′-adenosyl)-L-methionine iodide (0.1 mM), adenosine 3′-phosphate 5′-phosphosulfate lithium salt hydrate (0.1 mM) and acetyl CoA (1 mM). The metabolite samples were evaluated by HPLC and LC/MS analysis.

[4] = Bioreversibility of SB 44 in serum; assay type: in vitro ADME
Source text: Similar to the serum-mediated conversion of SB 44 to SB 40, in the case of microsomes liver esterases appear to be the major metabolizing enzymes involved in the hydrolytic conversion of SB 44 to SB 40. […] The facile bioconversion of SB 44 to SB 40 in liver and plasma is also consistent with broad substrate specificity of the ubiquitous esterase enzymes.

[5] = test system: HFF (human foreskin fibroblasts); test: MTT cytotoxicity assay, HFF cells; assay type: cell-based; settings: 24-hour incubation
Source text: SDS was used as a positive cytotoxic control.

[6] = Dose range-finding oral toxicity study in rats (single dose and 7 days); assay type: in vivo, Sprague-Dawley rats
Source text: The objective of this study was to determine potential toxic effects, to identify potential target organs of toxicity, and to determine a maximum tolerated dose (MTD) and a no observable adverse effect level (NOAEL) for the endpoints examined following daily oral gavage of SB 44 for 7 consecutive days to adult male and female Sprague-Dawley rats. Information from this study was used to design subsequent toxicity studies and determine the suitability of the proposed human dose. This study consisted of Phase A and Phase B. Phase A was a dose range-finding study. Two rats (1 male and 1 female) were included in the study. Animals were given a single dose of SB 44 at 1000 mg/kg by oral gavage (po) and observed for 3 days. […] No necropsy was performed.
In Phase B, rats (3/sex/group) were given a daily oral dose of SB 44 at 50, 250, and 1000 mg/kg/day for 7 consecutive days. A control group (3/sex) was also given a daily oral dose of the vehicle, 50% PEG 400 plus 50% HPMCT (0.1% hydroxypropyl methylcellulose and 0.2% Tween 80 in sterile water), at an equivalent volume for 7 days. Animals were sacrificed on Day 8. The following parameters were evaluated: mortality/morbidity, clinical observations, body weights, clinical pathology (hematology and serum chemistry), organ weights, and, at necropsy, macroscopic observations and microscopic histopathology for liver tissues.

[7] = 14-day oral toxicity study in rats with two-week recovery; assay type: in vivo, Sprague-Dawley rats
Experimental: (§1) Necropsies were performed on Day 15 for rats in the main study group and on Day 28 for rats in the recovery group.

[8] = test system: rat bone marrow erythrocytes; test: Bone-marrow micronucleus evaluation in rats; assay type: in vivo, Sprague-Dawley rats; settings: 14-day oral dosing
Experimental: as §1

[9] = liver microsomes
Experimental: SB 44 (10 μM) was incubated with a mix containing S9 fraction (pooled from human) (1 mg/ml), NADPH (1.3 mM) UDPGA (5 mM), Alamethicin (10 μg/ml) in 1 ml of 1×PBS buffer. […] The metabolite samples were evaluated by HPLC and LC/MS analysis.

COC1C(OP(=O)(OCC2OC(n3cnc4c(N)ncnc43)CC2O)SCOC(=O)OC(C)C)C(CO)OC1n1ccc(=O)[nH]c1=O (mixture of isomers) [SB 44]
IRF3 activation (IRF3-luciferase) [1]: induced IRF3 activation
production of IFN-β (interferon-β (IFN-β)): induces production of interferon-β
antigen presentation (Antigen-85B) in macrophages [2]: enhance antigen presentation in vitro
Mtb counts of lungs (M. tuberculosis): reducing Mtb counts of lungs better than either BCG or MDP+BCG
Mtb counts of spleens (M. tuberculosis): better than BCG vaccine in reducing Mtb counts of spleens
adjuvant efficacy with BCG vaccine against tuberculosis (M. tuberculosis): better than muramyl dipeptide (MDP) as adjuvants
anti-TB T cell function of mice (M. tuberculosis): dramatic increase in anti-TB T cell function of mice
memory precursor T cells (MPECs) (M. tuberculosis): induces better memory precursor T cells (MPECs) than BCG vaccine
tetramer specific CD8 T cells (M. tuberculosis): comparable levels of tetramer specific CD8 T cells
induction of mature IL-1β (IL-1β): induce IL-1β only in combination with either MDP or intact BCG bacilli
conversion of prodrug to SB 40 [3]: stereospecific conversion of SB 44 to the dinucleotide SB 40
phase II conjugative reactions [3]: no apparent evidence of any phase II conjugative reactions
desulfurized product corresponding to SB 40 ([3]; LC/MS): < 5%
conversion rates of the individual isomers [4]: almost equal rates
CC50 [5]: > 1000 µM
NOAEL ([6]; daily oral administration for 7 consecutive days): at least 1000 mg/kg/day
adverse effects ([6]; daily oral gavage 50, 250, 1000 mg/kg/day for 7 days): no overt biologically or toxicologically significant adverse effects
clinical observation after single dose ([6]; single dose 1000 mg/kg po, observed 3 days): appeared normal
no observed effect level (NOEL) ([7]; 14-day oral study): 50 mg/kg/day
overt toxicity ([7]; 50, 200, 500 mg/kg/day oral for 14 days): did not cause overt toxicity
thymus microscopic change ([7]; males and females at 200 and 500 mg/kg/day): Minimal to mild increases in thymic phagocytic macrophages
induction of micronuclei [8]: not found to induce micronuclei
minor metabolites [9]: < 10%
rate differences in conversion of Rp- and Sp-isomers [9]: no significant rate differences
desulfurized product ([9]; MS analysis): < 5%
conversion of prodrug to SB 40 ([9]; up to eight hours): stereospecific conversion to the dinucleotide Rp, Sp-SB 40

Reference: patent US10391166B2, “Short oligonucleotides as vaccine adjuvants and therapeutic agents” (priority 2013, dated 2019)
